US7094909B2, “HIV protease inhibitors, compositions containing the same, their pharmaceutical uses and materials for their synthesis” (priority 2001, dated 2006)

Experiments:
[1] = biological target: T1, HIV-1 protease (Q7S mutant form) (Human immunodeficiency virus type 1 group M subtype B, UniProt P04585, Q495S); assay: HIV-1 Protease RET assay; format: biochemical; details: Ki, unit inferred
T1 construct: made in house
Procedure, shortened: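 Q7S HIV-1 protease, refolded from urea, 2 nM active dimer with 5 μM EDANS/DABCYL peptide cleaved at Tyr-Pro; fluorescence 340/490 nm. 12 min at 37 °C in 0.1M sodium acetate pH 4.8, 1M NaCl, 10% DMSO. Ki from Morrison tight-binding fit.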

[2] = test system: HIV-1 (HIV-1 RF, HIV-1 NL4-3) in CEM-SS / MT-2 cells; assay: Cytopathic effect (CPE) inhibition assay (XTT/MTT dye reduction); format: cell-based; details: Human immunodeficiency virus 1, NL43, unit inferred; read-out: EC50
Experimental: T-cell lines, CEM-SS, and MT-2, and viruses HIV-1 RF and HIV-1 NL4-3 (pNL4-3) were obtained from the National Institutes of Health (AIDS Research and Reference Reagent Program, Bethesda, Md.).
Cytopathic Effect (CPE) Inhibition Assays
The ability of compounds to protect cells against HIV infection was measured by the […] dye reduction method, essentially as described (See Pauwels, R. Balzarini, J. Baba, M. Snoeck, R. Schols, D. Herdewijn, P. Desmyter, J. and De Clercq, E. 1988, “Rapid and automated tetrazolium-based colorimetric assay for the detection of anti-HIV compounds,”. J Virol. Methods., 20: 309–321 and Weislow, O. S. Kiser, R. Fine, D. L. Bader, J. Shoemaker, R. H. and Boyd, M. R. 1989. “New soluble-formazan assay for HIV-1 cytopathic effects: application to high-flux screening of synthetic and natural products for AIDS-antiviral activity”. J. Natl. Cancer Inst. 81:577–586). Subject cells were infected with test virus at an moi of 0.025 to 0.819 or mock infected with medium only and added at 2×10^4 cells per well into 96 well plates containing half-log dilutions of test compounds. Six days later, 50 μl of XTT (1 mg/ml XTT tetrazolium, 0.02 nM phenazine methosulfate) was added to the wells and the plate was reincubated for four hours. Viability, as determined by the amount of XTT formazan produced, was quantified spectrophotometrically by absorbance at 450 nm. Data from CPE assays were expressed as the percent of formazan produced in compound-treated cells compared to formazan produced in wells of uninfected, compound-free cells. The fifty percent effective concentration (EC50) was calculated as the concentration of compound that effected an increase in the percentage of formazan production in infected, compound-treated cells to 50% of that produced by uninfected, compound-free cells. The 50% cytotoxicity concentration (CC50) was calculated as the concentration of compound that decreased the percentage of formazan produced in uninfected, compound-treated cells to 50% of that produced in uninfected, compound-free cells. The therapeutic index was calculated by dividing the cytotoxicity (CC50) by the antiviral activity (EC50).

| SMILES | Ki [1] [nM] | EC50 [2] [nM] |
| --- | --- | --- |
| Cc1ccccc1CNC(=O)[C@H]1N(C(=O)[C@@H](O)[C@H](Cc2ccccc2)NC(=O)[C@@H](NC(=O)COc2cccc(N(C)C)c2)C(C)C)CSC1(C)C | ≤ 0.1 | 14 |
| Cc1ccccc1CNC(=O)[C@@H]1N(C(=O)[C@@H](O)[C@H](Cc2ccccc2)NC(=O)c2cccc(O)c2C)CSC12CCCC2 | 0.34 | 40 |
| C=CCNC(=O)[C@H]1N(C(=O)[C@@H](O)[C@H](Cc2ccccc2)NC(=O)[C@@H](NC(=O)c2ccc3ccccc3n2)C(C)C)CSC1(C)C | ≤ 0.1 | 41 |
| Cc1ccccc1CNC(=O)[C@H]1N(C(=O)[C@@H](O)[C@H](Cc2ccccc2)NC(=O)[C@@H](NC(=O)c2ccccn2)C(C)C)CSC1(C)C | ≤ 0.1 | 126 |
| Cc1ccc(C(=O)N[C@@H](Cc2ccccc2)[C@H](O)C(=O)N2CSC(C)(C)[C@H]2C(=O)NCc2cccs2)c(C)c1O | 0.39 | 332 |
| Cc1ccc(C(=O)N[C@@H](Cc2ccccc2)[C@H](O)C(=O)N2CSC(C)(C)[C@H]2C(=O)NCc2ccco2)c(C)c1O | 2 | 488 |
| Cc1ccccc1CCC(=O)[C@H]1N(C(=O)[C@@H](O)[C@H](Cc2ccccc2)NC(=O)O[C@H]2CCOC2)CSC1(C)C | 0.76 | 573 |
| CC(=O)Oc1cccc(C(=O)N[C@@H](CSc2ccccc2)[C@H](O)CN2C[C@H]3CCCC[C@H]3C[C@H]2C(=O)NCc2ccccc2C)c1C | 109 | 672 |
| Cc1ccccc1CNC(=O)[C@@H]1C[C@@H]2CCCC[C@@H]2CN1C[C@@H](O)[C@H](CSc1ccccc1)NC(=O)c1cccc(O)c1C | 6.4 | 901 |
| CC(=O)C(=O)N[C@@H](Cc1ccccc1)[C@H](O)C(=O)N1CSC(C)(C)[C@H]1C(=O)NCc1ccccc1C | 4.7 | ≥ 1000 |
| Cc1ccccc1CNC(=O)[C@H]1N(C(=O)[C@@H](O)[C@H](Cc2ccccc2)NC(=O)CBr)CSC1(C)C | 0.78 | ≥ 1000 |
| Cc1cccc(C)c1OCC(=O)N[C@@H](Cc1ccccc1)[C@H](O)C(=O)N1CSC(C)(C)[C@H]1C(=O)NC[C@H]1CCCO1 | 4.2 | ≥ 1000 |
| CCN1CCc2c(C(=O)N[C@@H](Cc3ccccc3)[C@H](O)C(=O)N3CSC(C)(C)[C@H]3C(=O)NCc3ccccc3C)cccc21 | 6.7 | 1010 |
| Cc1ccccc1CNC(=O)[C@H]1N(C(=O)[C@@H](O)[C@H](Cc2ccccc2)NC(=O)COc2c(C)cc(Cl)cc2C)CSC1(C)C | 0.38 | 1110 |
| Cc1ccc(C(=O)N[C@@H](Cc2ccccc2)[C@H](O)C(=O)N2CSC(C)(C)C2C(=O)N[C@@H]2C=CCCC2)c(C)c1O (stereo partly drawn) | 0.13 | 1160 |
| Cc1c(O)cccc1C(=O)N[C@@H](Cc1ccccc1)[C@H](O)C(=O)N1CSC(C)(C)[C@H]1C(=O)N1CCc2ccccc2C1 | 9 | 1180 |
| CC1(C)SCN(C(=O)[C@@H](O)[C@H](Cc2ccccc2)NC(=O)[C@@H]2CCCO2)[C@@H]1C(=O)N[C@H]1CCCc2ccccc21 | 4.3 | 1190 |
| Cc1ccccc1CNC(=O)[C@H]1N(C(=O)[C@@H](O)C(Cc2ccccc2)NC(=O)CNc2c(C)cccc2C)CSC1(C)C (stereo partly drawn) | 2.3 | 1220 |
| Cc1c(O)cccc1C(=O)N[C@@H](Cc1ccccc1)[C@H](O)C(=O)N1CSC(C)(C)[C@H]1C(=O)NC1CCC(C(C)(C)C)CC1 (stereo partly drawn) | 26 | 1230 |
| CC1(C)SCN(C(=O)[C@@H](O)[C@H](Cc2ccccc2)NC(=O)CSc2nc[nH]n2)[C@@H]1C(=O)N[C@H]1CCc2ccccc21 | 3.9 | 1230 |
| CC1(C)SCN(C(=O)[C@@H](O)[C@H](Cc2ccccc2)NC(=O)[C@@H]2CCCO2)[C@@H]1C(=O)N[C@H]1CCOc2ccccc21 | 7.5 | 1250 |
| CC1(C)SCN(C(=O)[C@@H](O)[C@H](Cc2ccccc2)NC(=O)CSc2nc[nH]n2)[C@@H]1C(=O)N[C@@H]1C=CCCC1 | 6.1 | 1280 |
| Cc1ccccc1CNC(=O)[C@H]1N(C(=O)[C@@H](O)[C@H](Cc2ccccc2)NC(=O)OC(C)(C)C)CSC1(C)C | 3 | 1290 |
| Cc1c(O)cccc1C(=O)N[C@@H](Cc1ccccc1)[C@H](O)C(=O)N1CSC(C)(C)[C@H]1C(=O)N[C@H]1CC1c1ccccc1 (stereo partly drawn) | 17.2 | 1330 |

| SMILES | Ki [1] [nM] | EC50 [2] [nM] |
| --- | --- | --- |
| C#CCOC(=O)N[C@@H](Cc1ccccc1)[C@H](O)C(=O)N1CSC(C)(C)[C@H]1C(=O)NCCC | 4.8 | 1350 |
| Cc1ccccc1CNC(=O)[C@H]1N(C(=O)[C@@H](O)[C@H](Cc2ccccc2)NC(=O)OCCCl)CSC1(C)C | 0.44 | 1430 |
| Cc1cccc(C)c1OCC(=O)N[C@@H](Cc1ccccc1)[C@H](O)C(=O)N1CSC(C)(C)[C@H]1C(=O)NCc1ccccc1Cl | ≤ 0.1 | 1540 |
| Cc1ccccc1CNC(=O)C1N(C(=O)[C@@H](O)[C@H](Cc2ccccc2)NC(=O)CSc2nccs2)CSC1(C)C (stereo partly drawn) | 6.9 | 1550 |
| CCCOC(=O)N[C@@H](Cc1ccccc1)[C@H](O)C(=O)N1CSC(C)(C)[C@H]1C(=O)NCc1ccccc1C | 1.1 | 1550 |
| CC1(C)SCN(C(=O)[C@@H](O)[C@H](Cc2ccccc2)NC(=O)O[C@H]2CCOC2)[C@@H]1C(=O)N[C@@H]1CCOc2ccccc21 | 3.7 | 1550 |
| Cc1ccccc1CNC(=O)[C@H]1N(C(=O)[C@@H](O)[C@H](Cc2ccccc2)NC(=O)COc2ccccc2C)CSC1(C)C | 0.89 | 1560 |
| CCOC(=O)N[C@@H](Cc1ccccc1)[C@H](O)C(=O)N1CSC(C)(C)[C@H]1C(=O)NCc1ccccc1C | 0.88 | 1640 |
| CCCCOC(=O)N[C@@H](Cc1ccccc1)[C@H](O)C(=O)N1CSC(C)(C)C1C(=O)NCc1ccccc1C (stereo partly drawn) | 7.6 | 1760 |
| CC1(C)SCN(C(=O)[C@@H](O)[C@H](Cc2ccccc2)NC(=O)CSc2nc[nH]n2)[C@@H]1C(=O)NCC#N | 28 | ≥ 3200 |
| Cc1ccccc1CNC(=O)C1N(C(=O)[C@@H](O)[C@H](Cc2ccccc2)NC(=O)CSc2nc3ccccc3[nH]2)CSC1(C)C (stereo partly drawn) | 17.4 | ≥ 3200 |
| Cc1ccccc1CNC(=O)C1N(C(=O)[C@@H](O)[C@H](Cc2ccccc2)NC(=O)CSc2nncn2C)CSC1(C)C (stereo partly drawn) | 82 | ≥ 3200 |
| Cc1ccccc1CNC(=O)[C@H]1N(C(=O)[C@@H](O)[C@H](Cc2ccccc2)NC(=O)COc2cccc3ccccc23)CSC1(C)C | 5.8 | ≥ 3200 |
| Cc1ccccc1CNC(=O)[C@H]1N(C(=O)[C@@H](O)[C@H](Cc2ccccc2)NC(=O)COc2cccc(N3CCOCC3)c2)CSC1(C)C | 4.4 | ≥ 3200 |
| Cc1ccccc1CNC(=O)[C@@H]1C2CCC(CC2)N1C(=O)[C@@H](O)[C@H](Cc1ccccc1)NC(=O)c1cccc(O)c1C | 9.8 | ≥ 3200 |
| CCCNC(=O)[C@H]1N(C(=O)[C@@H](O)[C@H](Cc2ccccc2)NC(=O)OCCC)CSC1(C)C | 12.7 | ≥ 3200 |
| CCCC(C)C(=O)NC(Cc1ccccc1)[C@H](O)C(=O)N1CSC(C)(C)C1C(=O)NCc1ccccc1C (stereo partly drawn) | 12.6 | ≥ 3200 |
| CCC(=O)NC(Cc1ccccc1)[C@H](O)C(=O)N1CSC(C)(C)C1C(=O)NCc1ccccc1C (stereo partly drawn) | 8.4 | ≥ 3200 |
| C=CC(C)COC(=O)NC(Cc1ccccc1)[C@H](O)C(=O)N1CSC(C)(C)C1C(=O)NCc1ccccc1C (stereo partly drawn) | 15.1 | ≥ 3200 |
| Cc1ccccc1CNC(=O)[C@@H]1CC(F)(F)CN1C(=O)[C@@H](O)[C@H](Cc1ccccc1)NC(=O)C1C(C)C(=O)ON1C (stereo partly drawn) | 3.6 | ≥ 3200 |
| Cc1ccccc1CNC(=O)[C@H]1C2CCC(C2)N1C(=O)[C@@H](O)[C@H](Cc1ccccc1)NC(=O)c1cccc(O)c1C (stereo partly drawn) | 18.4 | 4000 |
| Cc1ccccc1CNC(=O)[C@H]1N(C(=O)[C@@H](O)[C@H](Cc2ccccc2)NC(=O)OCc2ccccc2)CSC1(C)C | 1.4 | 4220 |
| Cc1ccccc1CNC(=O)[C@@H]1CCCCN1C(=O)[C@@H](O)[C@H](Cc1ccccc1)NC(=O)c1cccc(O)c1C | 51.7 | 5870 |
| COc1cc2c(cc1OC)CN(C(=O)[C@H]1N(C(=O)[C@@H](O)[C@H](Cc3ccccc3)NC(=O)c3cccc(O)c3C)CSC1(C)C)CC2 | 46 | ≥ 10000 |
